In US9334280B2, “Synthetic rigidin analogues as anticancer agents, salts, solvates and prodrugs thereof, and method of producing same” (New Mexico Technical Research Foundation, priority 2012, dated 2016):

Key:
[1] = test system: MES-SA uterine sarcoma cells; assay: MTT antiproliferative assay, MES-SA; assay type: cell-based; settings: Homo sapiens, Table 3, parental drug-responsive cell line, read-out: GI50 in vitro Values, MES-SA
Protocol: Human T-cell leukemia cell line Jurkat (ATCC TIB-152, E6-1 clone) was cultured in RPMI-1640 (Invitrogen) supplemented with 10% FBS (Invitrogen), 100 mg/L penicillin G, 100 mg/L streptomycin, 1.0 mM sodium pyruvate, 1.5 g/L sodium bicarbonate, and 4.5 g/L glucose (all from Sigma). Human cervical cancer cell line HeLa (ATCC S3) was cultured in DMEM (Invitrogen) supplemented with 10% FBS, 100 mg/L penicillin G, and 100 mg/L streptomycin. MCF-7 (human mammary carcinoma) cells were cultured in DMEM supplemented with 1.0 mM sodium pyruvate, 1% GlutaMax™-1 (Invitrogen), 100 μg/mL penicillin, 100 μg/mL streptomycin, and 10% FBS. Human uterine sarcoma MES-SA and MES-SA/Dx5 cells were cultured in RPMI-1640 medium supplemented with 10% FBS, 100 mg/L penicillin G and 100 mg/L streptomycin. All cells were incubated at 37° C. in a humidified atmosphere with 5% CO2. […]
To evaluate antiproliferative properties of the compounds of Formula I, mitochondrial dehydrogenase activities were measured using the MTT assay. […] Media was removed and the resulting formazan crystals were re-solubilized in 100 microL of DMSO and the optical density (OD) was measured using a Thermomax Molecular Device plate reader at a wavelength of 490 nm. […]
The cells of such tumors are referred to as multidrug resistant (MDR). Thus, we assessed the compounds of Formula I for antiproliferative activity in an MDR cancer cell line. […]

[2] = test system: Hs683 anaplastic oligodendroglioma cells; assay: MTT antiproliferative assay, Hs683; assay type: cell-based; settings: Homo sapiens, Hs 683, Table 2, 48 h, read-out: GI50 in vitro values, Hs683
Protocol: (§1) To evaluate antiproliferative properties of the compounds of Formula I, mitochondrial dehydrogenase activities were measured using the MTT assay. The cell lines were prepared by trypsinizing and seeding […] cells per well into microplates. All compounds were reconstituted in dimethyl sulfoxide (DMSO) at a concentration of either 100 mM or 25 mM prior to treatment. The cells were grown for 24 hrs before treatment at concentrations ranging from 0.004 to 100 microM and incubated for 48 hrs in 200 microL media. 20 microL of MTT reagent in serum free medium (5 mg/mL) was added to each well and incubated further for 2 hrs. Media was removed and the resulting formazan crystals were re-solubilized in 100 microL of DMSO and the optical density (OD) was measured using a Thermomax Molecular Device plate reader at a wavelength of 490 nm. The experiments were performed in quadruplicate and repeated at least twice for each compound per cell line. Cells treated with 0.1% DMSO were used as a negative control, while phenyl arsine oxide (PAO) was used as a positive killing control.

B16F10 melanoma cells = assay: MTT antiproliferative assay, B16F10; assay type: cell-based; settings: Mus musculus, B16-F10, Table 2, 48 h, read-out: GI50 in vitro values, B16F10
Protocol: as §1

[3] = test system: UM-SCC22B head and neck metastases cells; assay: MTT antiproliferative assay, UM-SCC22B; assay type: cell-based; settings: Homo sapiens, UMSCC22B, Table 1A, 48 h, read-out: Concentration required to reduce the viability of cells by 50%, UM-SCC22B
Protocol: as §1

[4] = test system: A549 non-small-cell lung cancer cells; assay: MTT antiproliferative assay, A549; assay type: cell-based; settings: Homo sapiens, Table 2, 48 h, read-out: GI50 in vitro values, A549
Protocol: as §1
(§2) Human cancer cell lines were obtained from the American Type Culture Collection (ATCC, Manassas, Va., USA), the European Collection of Cell Culture (ECACC, Salisbury, UK) and the Deutsche Sammlung von Mikroorganismen and Zellkulturen (DSMZ, Braunschweig, Germany). Human cervical adenocarcinoma HeLa cells were cultured in DMEM supplemented with 10% fetal bovine serum (FBS). Human mammary carcinoma MCF-7 cells were cultured in RPMI supplemented with 10% FBS. The U87 and U373 cells were cultured in DMEM culture medium (Lonza code 12-136F, Vervier, Belgium), while the SKMEL-28 and A549 cells were cultured in RPMI culture medium (Lonza; code 12-115F) supplemented with 10% heat-inactivated FBS (Lonza, FBS South America code DE14-801F). […] All cell lines were cultured in T25 flasks, maintained and grown at 37° C., 95% humidity, 5% CO2.
(§3) To evaluate antiproliferative properties of the synthesized compounds, the MTT assay was used. The cell lines were assessed by trypsinizing each cell line and seeding 4×10^3 cells per well into 96-well plates. All compounds were dissolved in DMSO at a concentration of either 100 mM or 50 mM prior to cell treatment. The cells were grown for 24 h and then treated with compounds at concentrations ranging from 0.04 to 100 μM and incubated for 48 h in 200 μL media. 20 μL of MTT reagent in serum free medium (5 mg/mL) was added to each well and incubated further for 2 h. Media was removed, and the resulting formazan crystals were re-solubilized in 200 μL of DMSO. A490 was measured using a Thermomax Molecular Device plate reader. The experiments were performed in quadruplicate and repeated at least twice for each compound per cell line. Cells treated with 0.1% DMSO were used as a control, and 1 μM phenyl arsine oxide (PAO) was used as a positive killing control.

[5] = test system: MES-SA/Dx5 uterine sarcoma cells (overexpress p-gp); assay: MTT antiproliferative assay, MDR MES-SA/Dx5; assay type: cell-based, human
Protocol: Human T-cell leukemia cell line Jurkat (ATCC TIB-152, E6-1 clone) was cultured in RPMI-1640 (Invitrogen) supplemented with 10% FBS (Invitrogen), 100 mg/L penicillin G, 100 mg/L streptomycin, 1.0 mM sodium pyruvate, 1.5 g/L sodium bicarbonate, and 4.5 g/L glucose (all from Sigma). Human cervical cancer cell line HeLa (ATCC S3) was cultured in DMEM (Invitrogen) supplemented with 10% FBS, 100 mg/L penicillin G, and 100 mg/L streptomycin. MCF-7 (human mammary carcinoma) cells were cultured in DMEM supplemented with 1.0 mM sodium pyruvate, 1% GlutaMax™-1 (Invitrogen), 100 μg/mL penicillin, 100 μg/mL streptomycin, and 10% FBS. Human uterine sarcoma MES-SA and MES-SA/Dx5 cells were cultured in RPMI-1640 medium supplemented with 10% FBS, 100 mg/L penicillin G and 100 mg/L streptomycin. All cells were incubated at 37° C. in a humidified atmosphere with 5% CO2. The other cell lines were maintained in a similar fashion as previously described.
as §1
The cells of such tumors are referred to as multidrug resistant (MDR). Thus, we assessed the compounds of Formula I for antiproliferative activity in an MDR cancer cell line. This was done using the uterine sarcoma cells, MES-SA/Dx5, which overexpress p-gp. The parental drug-responsive MES-SA cell line was used as control.

[6] = test system: HeLa cervical adenocarcinoma cells; assay: MTT antiproliferative assay, HeLa; assay type: cell-based; settings: Homo sapiens, Table 1, 48 h treatment, MTT, ± SD, read-out: GI50 in vitro Values, HeLa
Summary of the method: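 Cells were seeded at 4×10^3 per well, grown 24 h, then treated at 0.04–100 μM for 48 h; HeLa in DMEM and MCF-7 in RPMI, each with 10% FBS. MTT for 2 h, formazan dissolved in DMSO, A490 read; quadruplicate, at least two repeats, 0.1% DMSO vehicle control and 1 μM phenyl arsine oxide as positive killing control.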

SKMEL-28 melanoma cells = assay: MTT antiproliferative assay, SKMEL-28; assay type: cell-based, human; settings: Homo sapiens, SK-MEL-28; Table 2; 48 h, MTT; read-out: GI50 in vitro values, SKMEL-28
Protocol: as §1, §2
as §3, with “Cells treated with 0.1% DMSO were used as a control, and 1 μM phenyl arsine oxide (PAO) was used as a positive killing control.” left out

[7] = test system: UM-SCC22A head and neck cancer cells; assay: MTT antiproliferative assay, UM-SCC22A; assay type: cell-based; settings: Table 1A, 48 h, read-out: Concentration required to reduce the viability of cells by 50%, UM-SCC22A
Protocol: as §1

GI50 [2]: 0.02 µM
GI50 (B16F10 melanoma cells): 0.05 µM
GI50 [4]: 0.03 µM
GI50 ([5]; Homo sapiens, MES-SA/Dx5, Table 3, MDR cell line, read-out: GI50 in vitro Values, MES-SA/Dx5): 0.394 ± 0.01 µM
GI50 [6]: 0.095 ± 0.04 µM
GI50 (SKMEL-28 melanoma cells): 0.02 µM
IC50 [7]: 0.11 µM
Structure (SMILES): O=C(c1ccccc1)c1[nH]c2[nH]cnc(=O)c2c1-c1cc(Br)cc(Br)c1 [Rig8, 6-Benzoyl-5-(3,5-dibromophenyl)-1H-pyrrolo[2,3-d]pyrimidin-4(7H)-one]
GI50 [1]: 0.081 ± 0.006 µM
IC50 [3]: 0.02 µM
variation in the sensitivities of the parental and MDR cell lines ([5]; MES-SA/Dx5 vs MES-SA, in words): only a small variation
